Laboratory results as given in patent publication US20210213049A1, “METHOD AND MOLECULAR HYDROGEN-CONTAINING COMPOSITION FOR PROMOTION OF POSTOPERATIVE RECOVERY” (MiZ Company Limited, priority 2020, published 2021).

What was measured:
[1] = stated as known; cited from earlier work
[2] = tested on: person who underwent hip replacement surgery because of coxarthrosis
Text: A person underwent hip replacement surgery because of coxarthrosis (their right leg being […] shorter). The surgery was initiated at 10:00 a.m. on Jul. 10, 2019 and completed around 11 o'clock a.m. on the same day.
Initially, use of crutches for three months was planned as in usual cases, based on the anticipated postoperative course (that is, the patient was expected to use both crutches for the first 1.5 months and one crutch for the subsequent 1.5 months).

SMILES: [2H][2H] [D2, deuterium]
- superoxide eliminating effect compared with H2 [1]: stronger superoxide eliminating effect than that of H2

SMILES: [HH] [hydrogen, molecular hydrogen]
- time after the surgery at which the patient did not need to use crutches ([2]; hydrogen gas approximately 5.0%, approximately 200 mL/min, inhaled three to four hours per day from immediately after surgery, with rehabilitation, crutches for three months had been planned): 13 days
- postoperative recovery ([2]; hydrogen inhalation from immediately after hip replacement surgery, approximately 5.0% hydrogen, three to four hours per day, with rehabilitation): achieved early postoperative recovery
- discharge from hospital (date) ([2]; surgery on Jul. 10, 2019, hydrogen inhalation from immediately after the surgery): July 20
